Test results: publication PMC6321222, “An Application of Fit Quality to Screen MDM2/p53 Protein-Protein Interaction Inhibitors” (Molecules, 2018)
pIC50, pKi: −log10 of the molar value. Read-outs that look alike come from different tables or passages of the source.

Legend:
[1] = system: MDM2/p53 PPI; conditions: Figure 9, representative of each group; collected from the literature; cited from earlier work
[2] = target: T1, human recombinant His-fused soluble protein MDM2 (residues 1–118) (Homo sapiens, UniProt Q00987); assay: biochemical; type: binding; conditions: for FQ-Test: fit quality calculated using pKi tested by FP; for pKi: fluorescence polarization assay
T1 construct: His-fused soluble protein MDM2 (residues 1–118); His
T1 sequence (Q00987 1-118): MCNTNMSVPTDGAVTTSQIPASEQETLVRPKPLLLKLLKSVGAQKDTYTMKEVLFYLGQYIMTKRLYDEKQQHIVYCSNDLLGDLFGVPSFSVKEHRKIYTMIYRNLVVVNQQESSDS

[3] = system: Hep3B (p53 null); assay: cells; type: cell-based; conditions: Homo sapiens, means of three experiments, 72 h, read-out: MTT IC50 Hep3B (p53 null)
Method: (§1) In order to further confirm whether they inhibit MDM2 and release p53, a cellular test using HepG2 cell line (wild-type p53; wt-p53) vs. Hep3B cell line (p53 null) was carried out. The selectivity was calculated by IC50 against Hep3B divided by HepG2 (Table 1). The larger the selectivity value was, the stronger the interaction force between the ligands and MDM2.
(§2) The cellular growth inhibitory activity was determined using two human hepatoma cell lines, HepG2 (with wild-type p53) and Hep3B (with wt-p53 null). The IC50 was then analyzed using the GraphPad Prism 5 software (see Supplemental Materials).
(§3) In vitro antitumor activity.
(§4) Liver hepatocellular carcinoma HepG2 (with wild-type p53) and Hep3B (with p53 null) cell lines […]
(§5) 37°C in a humidified 5% carbon dioxide humidified incubator.
(§6) 5-6×10^4 cells per well were plated in 96-well plates (Costar) for 24 h, and the test compounds (prepared in 100% DMSO as a stock solution) were added in triplicate (100µL per well). 8 different concentrations (from 0.05 to 100µM) were tested for each compound. For each assay, the controls included only the medium (blank) and only the cells (positive). After 72 h of incubation, 20 µL of MTT (3-[4,5-dimethylthiazol-2-yl]-2,5-diphenyltetrazoliumbromide) solution (5 mg/mL) was added to each well, and after the samples were shaken for 1 min the plate was incubated further for 4 h at 37°C. […] were dissolved with 150 µL of DMSO and the plates were read using Eon (BioTek) at 570 nm. The IC50 was then analyzed using GraphPad Prism software. […]

[4] = system: HepG2 (wt-p53); assay: cells; type: cell-based, human; conditions: for pIC50: Homo sapiens, HepG2, means of three experiments, 72 h, read-out: MTT IC50 HepG2 (wt-p53)
Method: as §1, §2, §3, §4, §5, §6

[5] = IC50 of Hep3B (p53 null) divided by HepG2 (wt-p53)

For `CCOc1cc(C(C)(C)C)ccc1C1=N[C@@](C)(c2ccc(Cl)cc2)[C@@](C)(c2ccc(Cl)cc2)N1C(=O)N1CCN(CCCS(C)(=O)=O)CC1` [A], the pIC50 [1] is given as 7.05.
In the case of `CC(C)C(CS(=O)(=O)C(C)C)N1C(=O)C(C)(CC(=O)O)CC(c2cccc(Cl)c2)C1c1ccc(Cl)cc1` (stereo not shown) [B], the pIC50 [1] is listed as 10.00.
For `COc1cc(C(=O)O)ccc1NC(=O)[C@@H]1N[C@@H](CC(C)(C)C)[C@](C#N)(c2ccc(Cl)cc2F)[C@H]1c1cccc(Cl)c1F` [G], the pIC50 [1] is listed as 8.22.
In the case of `CC(C)(C)CC1NC(C(=O)NC2CCC(O)CC2)C(c2cccc(Cl)c2F)C12C(=O)Nc1cc(Cl)ccc12` (stereo not shown) [H], the pIC50 [1] is given as 6.67.
`CCCCN1C(=O)[C@](O)(CC(=O)c2ccccc2OC)c2cc(Br)ccc21` [compound 1] showed an FQ-Test [2] of 0.75, a pKi [2] of 5.41 and a pIC50 [3] of 4.11. The Selectivity [4] was 8.98 and the pIC50 [4] was 5.06.
Work on `COc1ccc(OC)c(S(=O)(=O)N(C)CC(=O)Nc2ccccc2OC)c1` [compound 2] yielded an FQ-Test [2] of 0.78, a pKi [2] of 5.66 and a pIC50 [3] of 4.47. The pIC50 [4] was 5.27 and the Selectivity [4, 5] was 6.23.
With `O=C(Nc1nc2ccccc2s1)c1ccccc1C(=O)c1ccc(Cl)cc1` [compound 3] the FQ-Test [2] was 0.86, the pKi [2] was 6.21 and the pIC50 [3] was 4.33. For the same molecule, the Selectivity [4] was 10.75 and the pIC50 [4] was 5.36.
`Nc1c(Cl)cc([C@@H](O)CN[C@H]2c3ccccc3CSc3ccccc32)cc1Cl` [compound 4] showed an FQ-Test [2] of 0.83, a pKi [2] of 6.09 and a pIC50 [3] of 4.46. It also gave a Selectivity [4] of 6.51 and a pIC50 [4] of 5.27.
Work on `COC(=O)c1cc(Oc2ccc(C(F)(F)F)cc2NS(=O)(=O)c2cccc(Cl)c2C)cs1` [compound 5] yielded an FQ-Test [2] of 0.80, a pKi [2] of 6.03 and a pIC50 [3] of 4.63. For the same molecule, the pIC50 [4] was 5.32 and the Selectivity [4, 5] was 4.87.
With `CCOc1ccccc1Oc1cnc(N)nc1-c1ccc(OCc2ccc(C)cc2)cc1O` [compound 6] the FQ-Test [2] was 0.83, the pKi [2] was 6.23 and the pIC50 [3] was 4.69. The Selectivity [4] was 3.71 and the pIC50 [4] was 5.26.
